# ± gives the expanded uncertainty stated by the source.
# Tests used:
# [1] = Boiling temperature at pressure P; conditions: Liquid, Ebulliometric method (Recirculating still)
# [2] = Liquid, Ebulliometric method (Recirculating still)
Boiling temperature at pressure P ([1]; 20 kPa),Boiling temperature at pressure P ([1]; 40 kPa),Boiling temperature at pressure P ([1]; 60 kPa),Boiling temperature at pressure P ([1]; 80 kPa),Boiling temperature at pressure P ([1]; 101.3 kPa),vapor or sublimation pressure ([2]; 315.14 K),vapor or sublimation pressure ([2]; 329.42 K),vapor or sublimation pressure ([2]; 338.61 K),vapor or sublimation pressure ([2]; 345.53 K),vapor or sublimation pressure ([2]; 351.62 K),Structure (SMILES)
34.77 ± 0.46 °C,52.32 ± 0.65 °C,63.93 ± 0.68 °C,72.94 ± 0.72 °C,80.96 ± 0.81 °C,,,,,,C1CCCCC1 [cyclohexane]
,,,,,20 ± 1 kPa,40 ± 1 kPa,60 ± 1 kPa,80 ± 2 kPa,101.3 ± 1.8 kPa,CCO [ethanol]

# Reference: the NIST ThermoML archive (doi:10.1021/acs.jced.6b00293)
